Source: patent publication US9359301B2, “Ethynyl derivatives” (Hoffmann-La Roche Inc., priority 2012, dated 2016)

What was measured:
human mGlu5a receptor [1] = biological target: T1, human mGlu5a receptor (Homo sapiens (Human), UniProt P41594); experiment: Intracellular Ca2+ mobilization assay (mGlu5 PAM assay); type: cell-based; conditions: for mGlu5 PAM EC50: HEK-293 cells, human mGlu5a, L-glutamate at EC20; for Activity profile: PAM = positive, NAM = negative allosteric modulator of mGlu5; for EC50 mGlu5 PAM assay: comparison table; for Efficacy: maximal response in % of maximal stimulatory effect of saturating L-glutamate
T1 sequence (P41594 other isoform, or with tags, fused parts or gaps): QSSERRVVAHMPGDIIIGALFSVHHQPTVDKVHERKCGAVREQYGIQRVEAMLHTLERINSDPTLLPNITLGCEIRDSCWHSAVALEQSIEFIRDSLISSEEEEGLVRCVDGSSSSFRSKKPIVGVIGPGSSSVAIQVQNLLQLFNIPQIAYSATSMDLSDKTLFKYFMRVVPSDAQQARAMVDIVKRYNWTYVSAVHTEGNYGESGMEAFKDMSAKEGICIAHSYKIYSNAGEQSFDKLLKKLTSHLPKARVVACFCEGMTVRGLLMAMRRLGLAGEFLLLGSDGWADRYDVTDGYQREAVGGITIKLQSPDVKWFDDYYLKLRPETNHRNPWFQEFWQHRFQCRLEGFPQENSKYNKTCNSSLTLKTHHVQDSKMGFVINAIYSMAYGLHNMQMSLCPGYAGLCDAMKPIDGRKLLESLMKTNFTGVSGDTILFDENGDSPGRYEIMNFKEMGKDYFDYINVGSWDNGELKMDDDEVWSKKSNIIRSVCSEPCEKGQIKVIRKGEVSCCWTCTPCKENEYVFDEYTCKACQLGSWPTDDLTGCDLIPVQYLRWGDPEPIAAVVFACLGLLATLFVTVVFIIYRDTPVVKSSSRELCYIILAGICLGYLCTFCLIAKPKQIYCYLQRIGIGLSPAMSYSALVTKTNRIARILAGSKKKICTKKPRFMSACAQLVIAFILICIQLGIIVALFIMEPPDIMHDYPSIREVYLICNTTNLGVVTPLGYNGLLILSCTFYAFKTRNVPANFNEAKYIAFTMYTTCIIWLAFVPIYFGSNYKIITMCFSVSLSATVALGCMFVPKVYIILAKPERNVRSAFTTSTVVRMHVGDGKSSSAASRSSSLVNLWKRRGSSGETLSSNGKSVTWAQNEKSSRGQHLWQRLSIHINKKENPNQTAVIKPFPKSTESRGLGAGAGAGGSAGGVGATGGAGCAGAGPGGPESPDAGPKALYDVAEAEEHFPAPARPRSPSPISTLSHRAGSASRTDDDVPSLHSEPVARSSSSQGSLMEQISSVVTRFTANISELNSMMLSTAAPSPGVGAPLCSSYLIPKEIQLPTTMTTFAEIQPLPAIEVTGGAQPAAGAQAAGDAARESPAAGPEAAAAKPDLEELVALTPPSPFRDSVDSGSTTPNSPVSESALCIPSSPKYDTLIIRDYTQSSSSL
Procedure: A monoclonal HEK-293 cell line stably transfected with a cDNA encoding for the human mGlu5a receptor was generated; for the work with mGlu5 Positive Allosteric Modulators (PAMs), a cell line with low receptor expression levels and low constitutive receptor activity was selected to allow the differentiation of agonistic versus PAM activity. Cells were cultured according to standard protocols (Freshney, 2000) in Dulbecco's Modified Eagle Medium with high glucose supplemented with 1 mM glutamine, 10% (vol/vol) heat-inactivated bovine calf serum, Penicillin/Streptomycin, 50 μg/ml hygromycin and 15 μg/ml blasticidin (all cell culture reagents and antibiotics from Invitrogen, Basel, Switzerland).
About 24 hrs before an experiment, 5×10^4 cells/well were seeded in poly-D-lysine coated, black/clear-bottomed 96-well plates. The cells were loaded with 2.5 μM Fluo-4AM in loading buffer (1×HBSS, 20 mM HEPES) for 1 hr at 37° C. and washed five times with loading buffer. The cells were transferred into a Functional Drug Screening System 7000 (Hamamatsu, Paris, France), and 11 half logarithmic serial dilutions of test compound at 37° C. were added and the cells were incubated for 10-30 min. with on-line recording of fluorescence. Following this pre-incubation step, the agonist L-glutamate was added to the cells at a concentration corresponding to EC20 (typically around 80 μM) with on-line recording of fluorescence; in order to account for day-to-day variations in the responsiveness of cells, the EC20 of glutamate was determined immediately ahead of each experiment by recording of a full dose-response curve of glutamate.
Responses were measured as peak increase in fluorescence minus basal (i.e. fluorescence without addition of L-glutamate), normalized to the maximal stimulatory effect obtained with saturating concentrations of L-glutamate. Graphs were plotted with the % maximal stimulatory using XLfit, a curve fitting program that iteratively plots the data using Levenburg Marquardt algorithm. The single site competition analysis equation used was y=A+((B−A)/(1+((x/C)D))), where y is the % maximal stimulatory effect, A is the minimum y, B is the maximum y, C is the EC50, x is the log 10 of the concentration of the competing compound and D is the slope of the curve (the Hill Coefficient). From these curves the EC50 (concentration at which half maximal stimulation was achieved), the Hill coefficient as well as the maximal response in % of the maximal stimulatory effect obtained with saturating concentrations of L-glutamate were calculated.
A depression of the signal observed after addition of the EC20 concentration of L-glutamate was indicative of an inhibitory activity of the test compound.

human mGlu5a receptor [2] = biological target: T1, human mGlu5a receptor; experiment: MPEP binding assay ([3H]MPEP displacement); conditions: for EC50: [3H]MPEP 2 nM, EBNA cell membranes, 1 h at 4° C., read-out: mGlu5-MPEP binding EC50; for Ki: comparison table
Procedure: For binding experiments, cDNA encoding human mGlu 5a receptor was transiently transfected into EBNA cells using a procedure described by Schlaeger and Christensen [Cytotechnology 15:1-13 (1998)]. Cell membrane homogenates were stored at −80° C. until the day of assay where upon they were thawed and resuspended and polytronised in 15 mM Tris-HCl, 120 mM NaCl, 100 mM KCl, 25 mM CaCl2, 25 mM MgCl2 binding buffer at pH 7.4 to a final assay concentration of 20 μg protein/well.
Saturation isotherms were determined by addition of twelve [^3H]MPEP concentrations (0.04-100 nM) to these membranes (in a total volume of 200 μl) for 1 h at 4° C. Competition experiments were performed with a fixed concentration of [^3H]MPEP (2 nM) and IC50 values of test compounds evaluated using 11 concentrations (0.3-10,000 nM). Incubations were performed for 1 h at 4° C.
At the end of the incubation, membranes were filtered onto unifilter (96-well white microplate with bonded GF/C filter preincubated 1 h in 0.1% PEI in wash buffer, Packard BioScience, Meriden, Conn.) with a Filtermate 96 harvester (Packard BioScience) and washed 3 times with cold 50 mM Tris-HCl, pH 7.4 buffer. Nonspecific binding was measured in the presence of 10 μM MPEP. The radioactivity on the filter was counted (3 min) on a Packard Top-count microplate scintillation counter with quenching correction after addition of 45 μl of microscint 40 (Canberra Packard S. A., Zürich, Switzerland) and shaking for 20 min.

mGlu5 PAM EC50 (human mGlu5a receptor [1]) | Activity profile (human mGlu5a receptor [1]) | EC50 mGlu5 PAM assay (human mGlu5a receptor [1]) | EC50 (human mGlu5a receptor [2]) [nM] | Ki (human mGlu5a receptor [2]) [nM] | SMILES | Efficacy (human mGlu5a receptor [1]) [%]
in- active | NAM | inactive | 42 | 42 | CCN(C(=O)c1ccc(C#Cc2cccc(F)c2)cn1)C(C)(C)C [Example 1, 5-(3-Fluoro-phenylethynyl)-pyridine-2-carboxylic acid tert-butyl-ethyl-amide] | –
in- active | NAM | inactive | 24 | 24 | CCN(C(=O)c1ccc(C#Cc2cccc(Cl)c2)cn1)C(C)(C)C [Example 2, 5-(3-Chloro-phenylethynyl)-pyridine-2-carboxylic acid tert-butyl-ethyl-amide] | –
in- active | NAM | inactive | 94 | 94 | CCN(C(=O)c1ncc(C#Cc2cccc(F)c2)cn1)C(C)(C)C [Example 3, 5-(3-Fluoro-phenylethynyl)-pyrimidine-2-carboxylic acid tert-butyl-ethyl-amide] | –
in- active | NAM | inactive | 46 | 46 | CCN(C(=O)c1ncc(C#Cc2cccc(Cl)c2)cn1)C(C)(C)C [Example 4, 5-(3-Chloro-phenylethynyl)-pyrimidine-2-carboxylic acid tert-butyl-ethyl-amide] | –

SMILES | mGlu5 PAM EC50 (human mGlu5a receptor [1]) | Activity profile (human mGlu5a receptor [1]) | EC50 mGlu5 PAM assay (human mGlu5a receptor [1]) | EC50 (human mGlu5a receptor [2]) [nM] | Ki (human mGlu5a receptor [2]) [nM] | Efficacy (human mGlu5a receptor [1]) [%]
CN(C(=O)c1ccc(C#Cc2cccc(F)c2)cn1)C(C)(C)C [Reference compound 1, reference compound] | – | PAM | – | 29 | – | 64
CN(C(=O)c1ncc(C#Cc2cccc(F)c2)cn1)C(C)(C)C [Reference compound 2, reference compound] | – | PAM | – | 51 | 51 | 55
